# Results taken from patent US20150141381A1, “TETRACYCLINE COMPOUNDS HAVING TARGET THERAPEUTIC ACTIVITIES” (Paratek Pharmaceuticals, Inc., priority 2001, published 2015).
# Read-outs that look alike come from different tables or passages of the source.
# Columns and labels:
# [1] = tested on: E. coli mL308 225; assay: In Vitro Anti-Bacterial Activity Assay (MIC), gram negative; assay type: cell-based; details: Escherichia coli, ML308225, 18 h
# [2] = tested on: S. aureus RN450; assay: In Vitro Anti-Bacterial Activity Assay (MIC), gram positive; assay type: cell-based; details: Staphylococcus aureus, RN450, 18 h
# [3] = tested on: nitric oxide synthesis in the J774 cell line; assay: Lipopolysaccharide Stimulation of Macrophage Assay (LSM Assay), inhibition of nitric oxide; assay type: cell-based; details: for Nitrite (inhibition of nitric oxide synthesis): LPS-stimulated J774 cells, Table 3 (Continued) key; for Nitrite: inhibition of nitric oxide synthesis, LPS (100 ng/ml) stimulated J774 cells, nitrite by Greiss Reaction, test compound 56 μg/ml
# Method: This assay was used to determine the anti-inflammatory effect of tetracycline compounds of the invention by determining the modulation of nitric oxide, interleukin-10 and interleukin-12 synthesis in the J774 cell line, according to a literature procedure (D'Agostino P. et al. Int Immunopharmacol. 2001 September; 1(9-10):1765-76). J774.2 cells were stimulated with 100 ng/ml lipopolysaccharide (LPS). Nitrite, the spontaneous degradation product of nitric oxide, is measured in cell supernatants using the Greiss Reaction. In the experimental conditions, test tetracycline compounds were added 30 minutes prior to LPS stimulation. Cytotoxicity is determined using Resazurin metabolism. On the first day, a 96-well black-walled plate (except for the bottom row) was seeded with 100 μl of a 2.5×10^6 cells/ml suspension and incubated for two hours at 37° C. and 5% CO2. Towards the end of the two hour incubation period, test compounds were prepared at a concentration of 139 μg/ml, in 1.25% DMSO, a 2.5× concentration ready for addition to the cells.
# At the end of the two hour incubation period, 80 μl of each of the test tetracycline compound solutions were added to the cell plates to make a final concentration of 56 μg/ml. Next, 80 μl of 1.25% DMSO in media was added to the negative control wells. Then, 80 μl of media was added to the positive control wells. The plate was then incubated for half an hour at 37° C., 5% CO2. A 10× working solution of LPS was prepared at a concentration of 1 μg/ml LPS.
# After the half hour incubation period, 20 μl of LPS (1 μg/ml) in media was added to half of the test and control wells to give a final concentration of 100 ng/ml. Next, 20 μl of media was added to other half of the wells. The plate was then incubated for 24 hours at 37° C., 5% CO2. 100 μl of the supernatant from each well was collected for nitrite testing. 60 μl of the supernatant was collected for cytokine testing using an enzyme linked immunosorbant assay. The plates are then stored after being covered with sealer and frozen.
# For the testing toxicity, the remaining media was blotted from the cell plates and 50 μl of Resazurin was added to each well (0.042 mg/ml in PBS w/Ca and Mg). The plate were then incubated for 45 mins, 37° C., 5% CO2, and for 30 minutes at room temperature. The plate was then read for Resazurin fluorescence.
# 50 μl/well of sulfanilamide solution (1% sulfanilamide in 5% […]) was added to supernatant plates. The plates were then incubated for 10 minutes at room temperature in the dark. Next, 50 μl/well NED solution (0.1% N-1-naphthylethylene diamine dihydrochloride in water) was added and incubated for 10 minutes at room temperature in the dark. Plates are then read for nitrite measurement and compared to a standard curve generated from the control wells.
# [4] = tested on: cultured murine cortical neurons; assay: Protection of Cultured Cortical Neurons from Excitotoxic Injury Induced by NMDA (NE Assay); assay type: cell-based, mice; details: NMDA 62.5 μM, LDH release 24 hours after starting the exposure
# Method: Primary cortical astrocyte cultures were prepared from one-day old mice, as described in the literature procedure (Tikka, T M et al. J Immunol. 2001 Jun. 15; 166(12):7527-33). After decapitation, the forebrain cortices were collected, cleaned from meninges and, after mincing, dissociated by incubation in papain/Dnase solution followed by trituration. The dissociated cells were suspended in a culture medium consisting of Eagle's minimal essential medium (MEM) with 10% heat-inactivated fetal bovine serum and glutamine (2 mM) and plated in 75 cm^2 cell culture flasks. The medium was replaced with fresh culture medium at day 7. At confluence (day 12-15), the astrocytes were trypsinized and re-plated into 24-well culture vessels. On day 7-8, the neurons were cultured on top of these confluent astrocyte monolayers.
# Cortical neuron suspensions were prepared from embryonic day 17 mice. The cortices were collected and meninges removed. The tissue was minced into small pieces and incubated in trypsin solution. The tissue was suspended using a pipette and after centrifugation resuspended and plated on top of astrocyte cultures at a density of 250,000 cells/well to 24-well culture vessel in Eagle's minimal essential medium (MEM, Earle's salts) supplemented with 20 mM glucose, 2 mM glutamine, 10% fetal bovine serum, and 10% heat-inactivated horse serum (HS). Medium was changed after 5 days to MEM containing 20 mM glucose, 2 mM glutamine, and 10% HS, as well as cytosine arabinoside (final concentration 10 μM) to inhibit cell division, and incubated for 2 days. Subsequently, cultures were fed twice weekly with MEM supplemented with 20 mM glucose, 2 mM glutamine and 10% HS, and used at day 12-15.
# On the day of experiment, the culture medium was replaced with 1) MEM, 2) MEM containing the test tetracycline compounds. Positive control drug included 10 μM MK-801 (Sigma). […] As a control for total neuronal death, a 24 hour incubation with 500 μM NMDA was used (100% cell death control).
# The cell viability was assessed by measuring lactate dehydrogenase (LDH) release 24 hours after starting the exposure. The LDH release to the culture medium was measured from cell-free medium using Sigma LDH reagent employing kinetic measurement of conversion of lactate to pyruvate using NADH as a cofactor. The rate of increase in absorbance at 340 nm was directly proportional to the activity of LDH in the sample, and was measured with a Labsystems Multiskan ELISA reader.
# [5] = tested on: MMP-9 production from PMA stimulated THP-1 cells; assay: Assay for MMP-9 Production from PMA Stimulated THP-1 Cells; assay type: cell-based, human; details: PMA 10 nM, 24 hours, MMP-9 ELISA of conditioned media
# Method: Cultures of human monocyte THP-1 cells were suspended at 1×10^6 cells/mL in RPMI-1640 supplemented with 10% FCS. Cell suspensions (90 μL per well) were seeded into 96-well microtiter plates, and incubated for 30 minutes at 37° C., in 5% CO2 and approximately 95% humidity. Serial dilutions of test drug are prepared at 2× final concentration under sterile conditions and 100 μL was transferred to cell plates. Plates were then incubated as above for 15 minutes. PMA (phorbol-12-myristate-13-acetate) was diluted in media to 20× final concentration. 10 μL of diluted PMA was added to the cell plate, resulting in a final concentration of 10 nM. Plates were then incubated again as above for 24 hours. After 24 hours, 100 μL of conditioned media was tested for MMP-9 protein levels using the Quantikine® Human MMP-9 (total) Immunoassay from R&D Systems. MMP-9 levels were calculated based on a standard curve of purified MMP-9 dilution samples run simultaneously in the ELISA plate. This assay detected both the 92 kDa pro- and 82 kDa active forms of MMP-9.
# [6] = gram negative bacteria, read-out: Antibiotic Activity Gram − (MIC)
# [7] = gram positive bacteria, read-out: Antibiotic Activity Gram + (MIC)
# [8] = MIC class, Table 3, read-out: Antibiotic Activity Gram −
# [9] = MIC class, Table 3, read-out: Antibiotic Activity Gram +
SMILES,"MIC [1, 6] [µg/mL]","MIC [2, 7] [µg/mL]",Nitrite (inhibition of nitric oxide synthesis) [3],neuroprotection (cell viability by LDH release) [4],"MIC [1, 8] [µg/mL]","MIC [2, 9] [µg/mL]",Nitrite [3],MMP-9 (inhibition of MMP-9 production) [5]
CN(C)[C@@H]1C(O)=C(C(N)=O)C(=O)[C@@]2(O)C(O)=C3C(=O)c4c(O)ccc(-c5ccccn5)c4C[C@H]3C[C@@H]12,< 4,< 4,3,,,,,
C[C@H]1c2ccc(CN3CCC(C(F)(F)F)CC3)c(O)c2C(=O)C2=C(O)[C@]3(O)C(=O)C(C(N)=O)=C(O)[C@@H](N(C)C)[C@@H]3[C@@H](O)[C@@H]21,< 4,< 4,3,,,,,
CN(C)CCCOC(=O)/C=C/c1ccc(O)c2c1C[C@H]1C[C@H]3[C@H](N(C)C)C(O)=C(C(N)=O)C(=O)[C@@]3(O)C(O)=C1C2=O [BP],,,,good neuroprotection,< 4,< 4,,
CN(C)c1cc(NC(=O)Nc2ccc([N+](=O)[O-])cc2)c(O)c2c1C[C@H]1C[C@H]3[C@@H](N(C)C)C(O)=C(C(N)=O)C(=O)[C@@]3(O)C(O)=C1C2=O [CD],,,,good neuroprotection,> 4,< 4,,
CN(C)[C@@H]1C(O)=C(C(N)=O)C(=O)[C@@]2(O)C(O)=C3C(=O)c4c(O)ccc(/C=C/C(=O)NC(C)(C)C)c4C[C@H]3C[C@@H]12 [CW],,,,good neuroprotection,> 4,< 4,,
C=C1c2cccc(O)c2C(=O)C2=C(O)[C@]3(O)C(=O)C(C(N)=O)=C(O)[C@@H](N(C)C)[C@@H]3[C@@H](O)[C@H]12 [C],,,,good neuroprotection,> 4,> 4,,
CN(C)c1cc(NCc2ccc3c(c2)OCO3)c(O)c2c1C[C@H]1C[C@H]3[C@H](N(C)C)C(O)=C(C(N)=O)C(=O)[C@@]3(O)C(O)=C1C2=O [EV],,,,good neuroprotection,> 4,> 4,,
CC(=O)Nc1cccc(-c2cc(N(C)C)c3c(c2O)C(=O)C2=C(O)[C@]4(O)C(=O)C(C(N)=O)=C(O)[C@@H](N(C)C)[C@@H]4C[C@@H]2C3)c1 [G],,,,good neuroprotection,> 4,> 4,○,
CN(C)c1cc(NC(=O)Nc2cccc(F)c2)c(O)c2c1C[C@H]1C[C@H]3[C@@H](N(C)C)C(O)=C(C(N)=O)C(=O)[C@@]3(O)C(O)=C1C2=O [H],,,,good neuroprotection,> 4,< 4,,
CN(C)[C@@H]1C(O)=C(C(N)=O)C(=O)[C@@]2(O)C(O)=C3C(=O)c4c(O)c(C(C)(C)C)cc(CN)c4C[C@H]3C[C@@H]12 [IE],,,,good neuroprotection,> 4,> 4,,
CN(C)[C@H]1C(O)=C(C(N)=O)C(=O)[C@@]2(O)C(O)=C3C(=O)c4c(O)c(CN)cc(-c5ccccc5)c4C[C@H]3C[C@@H]12 [JC],,,,good neuroprotection,> 4,> 4,,
CN(C)C1C(O)=C(C(N)=O)C(=O)[C@@]2(O)C(O)=C3C(=O)c4c(O)ccc(CNCC(C)(C)C)c4C[C@H]3C[C@@H]12 (stereo partly drawn) [JD],,,,good neuroprotection,< 4,< 4,,
CN(C)Cc1ccc(O)c2c1C[C@H]1C[C@H]3[C@@H](N(C)C)C(O)=C(C(N)=O)C(=O)[C@@]3(O)C(O)=C1C2=O [KF],,,,good neuroprotection,< 4,< 4,,
CN(C)c1cc(-c2ccc(CN3CCCC3)o2)c(O)c2c1C[C@H]1C[C@H]3[C@H](N(C)C)C(O)=C(C(N)=O)C(=O)[C@@]3(O)C(O)=C1C2=O [LJ],,,,,> 4,> 4,○,
CCC(=O)O[C@H]1[C@H]2C(=C(O)[C@]3(O)C(=O)C(C(N)=O)=C(O)[C@@H](N(C)C)[C@H]13)C(=O)c1c(O)cccc1[C@@H]2C [M],,,,good neuroprotection,> 4,< 4,,
CCCCOc1ccc(N(C)C)c2c1C(=O)C1=C(O)[C@]3(O)C(=O)C(C(N)=O)=C(O)[C@@H](N(C)C)[C@@H]3C[C@@H]1C2 [OM],,,,good neuroprotection,> 4,> 4,○,
CCC(=O)O[C@H]1[C@H]2C(=C(O)[C@]3(O)C(=O)C(C(N)=O)=C(O)[C@@H](N(C)C)[C@H]13)C(=O)c1c(ccc(NC(=O)Nc3cccc4ccccc34)c1O)[C@@H]2C [Q],,,,good neuroprotection,> 4,< 4,○,
CN(C)CCC(=O)c1ccc(O)c2c1C[C@H]1C[C@H]3[C@H](N(C)C)C(O)=C(C(N)=O)C(=O)[C@@]3(O)C(O)=C1C2=O [drawing 4022],,,,,,,,3
CN(C)[C@@H]1C(O)=C(C(N)=O)C(=O)[C@@]2(O)C(O)=C3C(=O)c4c(O)ccc(-c5ccc(NC(=O)c6ccno6)cc5)c4C[C@H]3C[C@@H]12 [drawing 4097],,,,,,,,3
CN(C)[C@@H]1C(O)=C(C(N)=O)C(=O)[C@@]2(O)C(O)=C3C(=O)c4c(O)ccc(N5CCOCC5)c4C[C@H]3C[C@@H]12 [drawing 4289],,,,,,,,2
